# From patent US4405743A, “Pyrazolylpyrimidine derivatives” (Hokko Chemical Industry Co., Ltd., priority 1981, dated 1983)
# System: Pyricularia oryzae
# Test: not given
# Assay type: in vivo, Pyricularia oryzae on rice plant (variety: Asahi)
# Settings: rice blast, prevention; 200 ppm; 5 days after inoculation
row,SMILES,Control Value
1,CCSc1nc(-n2nc(C)cc2C)ncc1C [Compound 33],100%
2,Cc1ccc(Oc2cc(C)nc(-n3nc(C)cc3C)n2)cc1 [Compound 13],100%
3,Cc1cc(C)n(-c2ncc(C)c(Oc3ccccc3)n2)n1 [Compound 34],92%
4,Cc1cc(Oc2ccc(Cl)cc2Cl)nc(-n2nc(C)cc2C)n1 [Compound 23],100%
5,Cc1cc(Oc2ccc([N+](=O)[O-])cc2)nc(-n2nc(C)cc2C)n1 [Compound 20],82%
6,CCCCCCc1cc(Oc2ccc(Cl)cc2)nc(-n2nc(C)cc2C)n1 [Compound 47],100%
7,Cc1ccc(Sc2cc(C)nc(-n3nc(C)cc3C)n2)cc1 [Compound 16],100%
8,CCCCc1c(C)nc(-n2nc(C)cc2C)nc1Oc1ccccc1 [Compound 43],100%
9,CCSc1ccnc(-n2nc(C)cc2C)n1 [Compound 2],100%
10,Cc1cc(C)n(-c2nc(C)c(C)c(Sc3ccccc3)n2)n1 [Compound 39],100%
11,CCSc1nc(-n2nc(C)cc2C)nc(C)c1C [Compound 37],100%
12,CCOc1nc(-n2nc(C)cc2C)nc(C)c1C [Compound 36],100%

# System: Pyricularia oryzae
# Test: not given
# Assay type: in vivo, Pyricularia oryzae on rice plant (variety: Asahi)
# Settings: rice blast, curative treatment; sprayed liquid 200 ppm; 5 days after spraying
row,SMILES,Control Value
1,CCSc1nc(-n2nc(C)cc2C)ncc1C [Compound 33],82%
2,Cc1ccc(Oc2cc(C)nc(-n3nc(C)cc3C)n2)cc1 [Compound 13],100%
3,Cc1cc(C)n(-c2ncc(C)c(Oc3ccccc3)n2)n1 [Compound 34],100%
4,Cc1cc(Oc2ccc(Cl)cc2Cl)nc(-n2nc(C)cc2C)n1 [Compound 23],86%
5,CCCCCCc1cc(Oc2ccc(Cl)cc2)nc(-n2nc(C)cc2C)n1 [Compound 47],100%
6,Cc1ccc(Sc2cc(C)nc(-n3nc(C)cc3C)n2)cc1 [Compound 16],100%
7,CCCCc1c(C)nc(-n2nc(C)cc2C)nc1Oc1ccccc1 [Compound 43],86%
8,CCSc1ccnc(-n2nc(C)cc2C)n1 [Compound 2],100%
9,Cc1cc(C)n(-c2nc(C)c(C)c(Sc3ccccc3)n2)n1 [Compound 39],100%
10,CCSc1nc(-n2nc(C)cc2C)nc(C)c1C [Compound 37],81%
11,CCOc1nc(-n2nc(C)cc2C)nc(C)c1C [Compound 36],99%

# System: Cochliobolus miyabeanus
# Test: Effect of controlling rice brown spot, Experimental Example 3
# Assay type: in vivo, Cochliobolus miyabeanus on rice plant (variety: Asahi)
# Settings: sprayed liquid 500 ppm, 5 days after inoculation
row,SMILES,Control Value
1,CCSc1nc(-n2nc(C)cc2C)ncc1C [Compound 33],82%
2,Cc1ccc(Oc2cc(C)nc(-n3nc(C)cc3C)n2)cc1 [Compound 13],100%
3,Cc1cc(C)n(-c2ncc(C)c(Oc3ccccc3)n2)n1 [Compound 34],98%
4,Cc1cc(Oc2ccc(Cl)cc2Cl)nc(-n2nc(C)cc2C)n1 [Compound 23],84%
5,Cc1cc(Oc2ccc([N+](=O)[O-])cc2)nc(-n2nc(C)cc2C)n1 [Compound 20],91%
6,CCCCCCc1cc(Oc2ccc(Cl)cc2)nc(-n2nc(C)cc2C)n1 [Compound 47],90%
7,Cc1ccc(Sc2cc(C)nc(-n3nc(C)cc3C)n2)cc1 [Compound 16],100%
8,CCCCc1c(C)nc(-n2nc(C)cc2C)nc1Oc1ccccc1 [Compound 43],94%
9,CCSc1ccnc(-n2nc(C)cc2C)n1 [Compound 2],94%
10,Cc1cc(C)n(-c2nc(C)c(C)c(Sc3ccccc3)n2)n1 [Compound 39],78%
11,CCSc1nc(-n2nc(C)cc2C)nc(C)c1C [Compound 37],93%
12,CCOc1nc(-n2nc(C)cc2C)nc(C)c1C [Compound 36],100%

# System: Sphaerotheca friliginea
# Test: Effect of controlling cucumber powdery mildew, Experimental Example 4
# Assay type: in vivo
# Settings: sprayed liquid 200 ppm, 10 days after inoculation
# Description: 10 ml of each of test liquids diluted to a predetermined concentration was sprayed over seedlings of a cucumber plant (variety: Sagami Hanpaku) grown up to the first leaf stage which has been soil cultured in an unglazed pot with a diameter of 9 cm in a green house. After allowing to stand overnight, the seedlings were sprayed for inoculation with a spore suspension of Sphaerotheca friliginea. Ten days after the inoculation, the rate of a lesion area (%) was checked and a control value was evaluated from the following equation. The degree of chemical injury against a cucumber plant was determined in the same manner as in Experimental Example.
row,SMILES,Control Value
1,CCSc1nc(-n2nc(C)cc2C)ncc1C [Compound 33],94%
2,Cc1ccc(Oc2cc(C)nc(-n3nc(C)cc3C)n2)cc1 [Compound 13],100%
3,Cc1cc(C)n(-c2ncc(C)c(Oc3ccccc3)n2)n1 [Compound 34],100%
4,Cc1cc(Oc2ccc(Cl)cc2Cl)nc(-n2nc(C)cc2C)n1 [Compound 23],82%
5,Cc1cc(Oc2ccc([N+](=O)[O-])cc2)nc(-n2nc(C)cc2C)n1 [Compound 20],78%
6,CCCCCCc1cc(Oc2ccc(Cl)cc2)nc(-n2nc(C)cc2C)n1 [Compound 47],79%
7,CCCCc1c(C)nc(-n2nc(C)cc2C)nc1Oc1ccccc1 [Compound 43],82%
8,CCSc1ccnc(-n2nc(C)cc2C)n1 [Compound 2],88%
9,Cc1cc(C)n(-c2nc(C)c(C)c(Sc3ccccc3)n2)n1 [Compound 39],100%
10,CCSc1nc(-n2nc(C)cc2C)nc(C)c1C [Compound 37],100%
11,CCOc1nc(-n2nc(C)cc2C)nc(C)c1C [Compound 36],93%

# System: rice plant
# Test: not given
# Settings: blast prevention test, 200 ppm
row,SMILES,Degree of chemical injury
1,CCSc1nc(-n2nc(C)cc2C)ncc1C [Compound 33],0
2,Cc1ccc(Oc2cc(C)nc(-n3nc(C)cc3C)n2)cc1 [Compound 13],0
3,Cc1cc(C)n(-c2ncc(C)c(Oc3ccccc3)n2)n1 [Compound 34],0
4,Cc1cc(Oc2ccc(Cl)cc2Cl)nc(-n2nc(C)cc2C)n1 [Compound 23],0
5,Cc1cc(Oc2ccc([N+](=O)[O-])cc2)nc(-n2nc(C)cc2C)n1 [Compound 20],0
6,CCCCCCc1cc(Oc2ccc(Cl)cc2)nc(-n2nc(C)cc2C)n1 [Compound 47],0
7,Cc1ccc(Sc2cc(C)nc(-n3nc(C)cc3C)n2)cc1 [Compound 16],0
8,CCCCc1c(C)nc(-n2nc(C)cc2C)nc1Oc1ccccc1 [Compound 43],0
9,CCSc1ccnc(-n2nc(C)cc2C)n1 [Compound 2],0
10,Cc1cc(C)n(-c2nc(C)c(C)c(Sc3ccccc3)n2)n1 [Compound 39],0
11,CCSc1nc(-n2nc(C)cc2C)nc(C)c1C [Compound 37],0
12,CCOc1nc(-n2nc(C)cc2C)nc(C)c1C [Compound 36],0

# System: rice plant
# Test: not given
# Settings: blast curative test, 200 ppm
row,SMILES,Degree of chemical injury
1,CCSc1nc(-n2nc(C)cc2C)ncc1C [Compound 33],0
2,Cc1ccc(Oc2cc(C)nc(-n3nc(C)cc3C)n2)cc1 [Compound 13],0
3,Cc1cc(C)n(-c2ncc(C)c(Oc3ccccc3)n2)n1 [Compound 34],0
4,Cc1cc(Oc2ccc(Cl)cc2Cl)nc(-n2nc(C)cc2C)n1 [Compound 23],0
5,CCCCCCc1cc(Oc2ccc(Cl)cc2)nc(-n2nc(C)cc2C)n1 [Compound 47],0
6,Cc1ccc(Sc2cc(C)nc(-n3nc(C)cc3C)n2)cc1 [Compound 16],0
7,CCCCc1c(C)nc(-n2nc(C)cc2C)nc1Oc1ccccc1 [Compound 43],0
8,CCSc1ccnc(-n2nc(C)cc2C)n1 [Compound 2],0
9,Cc1cc(C)n(-c2nc(C)c(C)c(Sc3ccccc3)n2)n1 [Compound 39],0
10,CCSc1nc(-n2nc(C)cc2C)nc(C)c1C [Compound 37],0
11,CCOc1nc(-n2nc(C)cc2C)nc(C)c1C [Compound 36],9

# System: rice plant
# Test: not given
# Settings: in vivo
row,SMILES,Degree of chemical injury
1,CCSc1nc(-n2nc(C)cc2C)ncc1C [Compound 33],0
2,Cc1ccc(Oc2cc(C)nc(-n3nc(C)cc3C)n2)cc1 [Compound 13],0
3,Cc1cc(C)n(-c2ncc(C)c(Oc3ccccc3)n2)n1 [Compound 34],0
4,Cc1cc(Oc2ccc(Cl)cc2Cl)nc(-n2nc(C)cc2C)n1 [Compound 23],0
5,Cc1cc(Oc2ccc([N+](=O)[O-])cc2)nc(-n2nc(C)cc2C)n1 [Compound 20],0
6,CCCCCCc1cc(Oc2ccc(Cl)cc2)nc(-n2nc(C)cc2C)n1 [Compound 47],0
7,Cc1ccc(Sc2cc(C)nc(-n3nc(C)cc3C)n2)cc1 [Compound 16],0
8,CCCCc1c(C)nc(-n2nc(C)cc2C)nc1Oc1ccccc1 [Compound 43],0
9,CCSc1ccnc(-n2nc(C)cc2C)n1 [Compound 2],0
10,Cc1cc(C)n(-c2nc(C)c(C)c(Sc3ccccc3)n2)n1 [Compound 39],0
11,CCSc1nc(-n2nc(C)cc2C)nc(C)c1C [Compound 37],0
12,CCOc1nc(-n2nc(C)cc2C)nc(C)c1C [Compound 36],0

# System: cucumber plant
# Test: not given
# Settings: in vivo
row,SMILES,Degree of chemical injury
1,CCSc1nc(-n2nc(C)cc2C)ncc1C [Compound 33],0
2,Cc1ccc(Oc2cc(C)nc(-n3nc(C)cc3C)n2)cc1 [Compound 13],0
3,Cc1cc(C)n(-c2ncc(C)c(Oc3ccccc3)n2)n1 [Compound 34],0
4,Cc1cc(Oc2ccc(Cl)cc2Cl)nc(-n2nc(C)cc2C)n1 [Compound 23],0
5,Cc1cc(Oc2ccc([N+](=O)[O-])cc2)nc(-n2nc(C)cc2C)n1 [Compound 20],0
6,CCCCCCc1cc(Oc2ccc(Cl)cc2)nc(-n2nc(C)cc2C)n1 [Compound 47],0
7,CCCCc1c(C)nc(-n2nc(C)cc2C)nc1Oc1ccccc1 [Compound 43],0
8,CCSc1ccnc(-n2nc(C)cc2C)n1 [Compound 2],0
9,Cc1cc(C)n(-c2nc(C)c(C)c(Sc3ccccc3)n2)n1 [Compound 39],0
10,CCSc1nc(-n2nc(C)cc2C)nc(C)c1C [Compound 37],0
11,CCOc1nc(-n2nc(C)cc2C)nc(C)c1C [Compound 36],0
